Experimental data: patent US7709475B2, “Selective inhibitors against Cdk4 and Cdk6 having aminothiazole skeleton” (Banyu Pharmaceutical Co., Ltd., priority 2004, dated 2010)

How the values were obtained:
[1] = target: T1, cyclin D2-Cdk4 (Homo sapiens, UniProt P11802); assay: Cdk4 inhibitory action: cyclin D2-Cdk4 kinase activity, 33P-ATP, RB peptide substrate; format: biochemical; settings: cyclin D2-Cdk4, 50 μM ATP
T1 construct: made in house; host or cells: insect cell Sf9 (baculovirus)
Description: First, the cDNA of Cdk4, and the cDNA of a fusion protein of cyclin D2, an activating factor of Cdk4, and glutathione S-transferase, were integrated into a baculovirus expression vector to prepare a recombinant baculovirus. This was co-transfected into insect cell Sf9 to express an active complex of the cyclin D2/glutathione S-transferase fusion protein-Cdk4 at a high level. The cells were recovered and solubilized, then the active complex was adsorbed onto Glutathione Sepharose, and a cyclin D2-Cdk4 complex was recovered using Precision Protease and was purified by HPLC column chromatography [EMBO J., Vol. 15, 7060-7069 (1996)].
For the measurement of the activity of cyclin D2-Cdk4, a synthetic peptide (Arg-Pro-Pro-Thr-Leu-Ser-Pro-Ile-Pro-His-Ile-Pro-Arg) corresponding to amino acid residue No. 775-787 of RB protein was used as the substrate [EMBO J., Vol. 15, 7060-7069 (1996)].
The reaction was performed by partially modifying the method of Kitagawa et al. [Oncogene, Vol. 7, 1067-1074 (1992)]. The volume of the reaction solution was 21.1 μL, and the composition of the reaction buffer (R buffer) was 20 mM Tris-hydrochloric acid buffer (pH 7.4)/10 mM magnesium chloride/4.5 mM 2-mercaptoethanol/1 mM ethylene glycol bis(β-aminoethyl ether)-N,N,N′,N′-tetraacetic acid (EGTA). To this reaction buffer, purified cyclin D2-Cdk4, 100 μM of the substrate peptide, 50 μM of non-labeled adenosine triphosphate (ATP), and 1 μCi of [γ-33P]-labeled ATP (2000 to 4000 Ci/mmole) were added to react at 30° C. for 45 minutes. Then, 10 μL of 350 mM phosphate buffer was added to the reaction system to terminate the reaction. The substrate peptide was adsorbed onto P81 paper filter on a 96-well plate, and then washed several times with 75 mM phosphate buffer. The radioactivity of the substrate peptide was measured with a liquid scintillation counter. The [γ-33P]-labeled ATP was purchased from Daiichi Pure Chemicals Co., Ltd.
Addition of the test compound to the reaction system was carried out by first preparing a dilution series of solutions of the compound in dimethylsulfoxide (DMSO), and adding 1.1 μL of the dilutions. A control was provided by adding 1.1 μL of DMSO to the reaction system.
A representative compound of the compounds according to the invention was selected, and the IC50 value of this compound for the cyclin D2-Cdk4 activity was determined.

[2] = target: T2, cyclin H-Cdk7 (Homo sapiens, UniProt P50613); assay: Cdk7 inhibitory action: cyclin H-Cdk7 kinase activity; format: biochemical; settings: cyclin H-Cdk7, 50 μM ATP
T2 construct: made in house; host or cells: insect cell Sf9 (baculovirus)
T2 sequence (P50613 whole entry): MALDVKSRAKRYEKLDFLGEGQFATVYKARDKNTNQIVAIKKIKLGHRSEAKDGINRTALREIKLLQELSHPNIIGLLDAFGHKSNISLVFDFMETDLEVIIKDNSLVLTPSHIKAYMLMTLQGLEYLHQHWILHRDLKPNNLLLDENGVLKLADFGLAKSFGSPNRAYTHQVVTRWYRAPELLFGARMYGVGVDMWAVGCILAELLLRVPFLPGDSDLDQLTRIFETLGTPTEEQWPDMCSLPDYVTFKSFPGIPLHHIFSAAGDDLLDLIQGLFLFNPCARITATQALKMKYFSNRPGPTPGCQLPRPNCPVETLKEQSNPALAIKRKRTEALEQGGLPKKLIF
T2 sequence (P51946 whole entry partner): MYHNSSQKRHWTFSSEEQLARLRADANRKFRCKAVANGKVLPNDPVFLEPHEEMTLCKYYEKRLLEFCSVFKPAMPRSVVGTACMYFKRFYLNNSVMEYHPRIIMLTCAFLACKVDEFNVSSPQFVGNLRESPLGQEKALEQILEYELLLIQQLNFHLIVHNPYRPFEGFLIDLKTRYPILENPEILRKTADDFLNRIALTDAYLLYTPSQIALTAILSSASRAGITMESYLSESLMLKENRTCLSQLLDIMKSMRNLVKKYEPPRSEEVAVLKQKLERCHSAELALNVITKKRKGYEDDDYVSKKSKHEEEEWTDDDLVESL
Description: The cDNA of Cdk7, and the cDNA of a fusion protein of cyclin H, an activating factor of Cdk7, and glutathione S-transferase, were integrated into a baculovirus expression vector to prepare a recombinant baculovirus. This was co-transfected into insect cell Sf9 to express an active complex of the cyclin H/glutathione S-transferase fusion protein-Cdk7 at a high level. The cells were recovered and solubilized, then the active complex was adsorbed onto Glutathione Sepharose, and a cyclin H-Cdk7 active complex was recovered using Precision Protease.
For the measurement of the activity of cyclin H-Cdk7, a synthetic peptide ([…] was used as the substrate.
(§1) The reaction was performed by partially modifying the method of Kitagawa et al. [Oncogene, Vol. 7, 1067-1074 (1992)]. The volume of the reaction solution was 21.1 μL, and to the R buffer, purified cyclin H-Cdk7, 25 μM of the substrate peptide, 50 μM of non-labeled adenosine triphosphate (ATP), and 1 μCi of [γ-33P]-labeled ATP (2000 to 4000 Ci/mmole) were added to react at 30° C. for 45 minutes. Then, 10 μL of 350 mM phosphate buffer was added to the reaction system to terminate the reaction. The substrate peptide was adsorbed onto P81 paper filter on a 96-well plate, and then washed several times with 75 mM phosphate buffer. The radioactivity of the substrate peptide was measured with a liquid scintillation counter.
Addition of the compound according to the invention to the reaction system was carried out by first preparing a dilution series of solutions of the compound in dimethylsulfoxide (DMSO), and adding 1.1 μL of the dilutions. A control was provided by adding 1.1 μL of DMSO to the reaction system.
A representative compound of the compounds according to the invention was selected, and the IC50 value of this compound for the cyclin H-Cdk7 activity was determined.

[3] = target: T3, cyclin T1-Cdk9 (Homo sapiens, UniProt P50750); assay: Cdk9 inhibitory action: cyclin T1-Cdk9 kinase activity; format: biochemical; settings: cyclin T1-Cdk9, 50 μM ATP
T3 construct: made in house; host or cells: insect cell Sf9 (baculovirus)
T3 sequence (P50750 whole entry): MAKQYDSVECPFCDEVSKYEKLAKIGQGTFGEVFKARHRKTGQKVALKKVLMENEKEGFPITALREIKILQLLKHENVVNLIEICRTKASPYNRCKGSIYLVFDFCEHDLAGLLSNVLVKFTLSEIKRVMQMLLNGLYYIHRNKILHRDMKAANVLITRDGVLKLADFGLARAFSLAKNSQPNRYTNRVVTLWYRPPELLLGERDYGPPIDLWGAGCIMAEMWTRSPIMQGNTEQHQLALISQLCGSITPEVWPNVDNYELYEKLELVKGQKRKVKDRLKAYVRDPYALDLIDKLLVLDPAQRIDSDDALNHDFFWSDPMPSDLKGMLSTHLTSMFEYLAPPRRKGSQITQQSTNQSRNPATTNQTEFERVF
T3 sequence (O60563 whole entry partner): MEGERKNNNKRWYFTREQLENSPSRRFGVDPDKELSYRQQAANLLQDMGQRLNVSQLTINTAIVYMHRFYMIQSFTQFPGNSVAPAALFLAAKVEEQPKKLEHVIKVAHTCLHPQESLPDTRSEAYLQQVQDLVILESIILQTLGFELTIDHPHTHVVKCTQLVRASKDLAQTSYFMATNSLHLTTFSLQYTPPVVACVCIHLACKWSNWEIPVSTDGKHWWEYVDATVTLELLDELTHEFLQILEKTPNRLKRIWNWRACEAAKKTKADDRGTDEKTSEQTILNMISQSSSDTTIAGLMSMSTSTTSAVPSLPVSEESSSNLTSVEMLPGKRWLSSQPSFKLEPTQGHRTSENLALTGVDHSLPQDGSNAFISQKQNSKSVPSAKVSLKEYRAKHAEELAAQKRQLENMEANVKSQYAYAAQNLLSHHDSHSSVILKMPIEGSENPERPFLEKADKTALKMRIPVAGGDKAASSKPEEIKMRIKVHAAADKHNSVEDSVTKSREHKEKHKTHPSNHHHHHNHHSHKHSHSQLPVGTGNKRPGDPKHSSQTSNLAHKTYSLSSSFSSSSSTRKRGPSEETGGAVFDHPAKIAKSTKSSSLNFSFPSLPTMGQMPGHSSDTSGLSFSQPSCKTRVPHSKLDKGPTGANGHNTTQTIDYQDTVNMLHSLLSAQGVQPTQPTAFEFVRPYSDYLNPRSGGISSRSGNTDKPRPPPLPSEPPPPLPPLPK
Description: The cDNA of Cdk9, and the cDNA of a fusion protein of cyclin T1, an activating factor of Cdk9, and glutathione S-transferase, were integrated into a baculovirus expression vector to prepare a recombinant baculovirus. This was co-transfected into insect cell Sf9 to express an active complex of the cyclin T1/glutathione S-transferase fusion protein-Cdk9 at a high level. The cells were recovered and solubilized, and the active complex was adsorbed onto Glutathione Sepharose, and then was purified by elution with 10 mM reductive glutathione. The solution containing the eluted active complex was dialyzed against B buffer (composition: 20 mM Tris-hydrochloric acid buffer (pH 7.4)/200 mM sodium chloride/0.1% Tween-20/10 mM 2-mercaptoethanol/1 mM dithiothreitol/10% glycerol) to remove the reductive glutathione.
For the measurement of the activity of cyclin T1-Cdk9, a synthetic peptide ([…] was used as the substrate.
as §1, with “cyclin T1-Cdk9,” for “cyclin H-Cdk7,”, “and 0.5” for “and 1”, “for 20” for “for 45”
Addition of the compound according to the invention to the reaction system was carried out by first preparing a dilution series of solutions of the compound in dimethylsulfoxide (DMSO), and adding […] of the dilutions. A control was provided by adding 1.1 μL of DMSO to the reaction system.
A representative compound of the compounds according to the invention was selected, and the IC50 value (nM) of this compound for the cyclin T1-Cdk9 activity was determined.

[4] = test system: JURKAT; assay: Inhibitory action against cell proliferation (WST-8), JURKAT; format: cell-based; settings: Homo sapiens, 72 h, Jurkat cells, 3 days culture, read-out: concentration for 50% inhibition of cell proliferation (IC50), Jurkat
Procedure: Clinically isolated cancer cell lines EOL-1, KU812 and JURKAT were cultured in RPMI1640 medium containing 10% fetal calf serum at 37° C. in the presence of 5% CO2 under an atmosphere of saturated steam.
The inhibitory action against cell proliferation was measured by modifying the method of Skehan et al. [J. Natl. Cancer Inst., Vo. 82, 1107-1112 (1990)] according to the method of Ishiyama et al. [Talanta, Vol. 44, 1299 (1997)]. 100 μL each of cell culture medium containing 1×10^3 live cells of EOL-1, KU812 and JURKAT, respectively, was dispensed into each well of a 96-well cell culture dish, and the cells were cultured overnight. On the next day, a dilution series of solutions in DMSO was prepared from a DMSO solution of the compound of each Example. Then, the dilution series of solutions or DMSO only as a control for no drug addition were separately added to the medium for cell culture. Finally, 100 μL each of the culture medium containing either the dilution series of solutions of the compounds or DMSO only, was added to the cells which had been cultured in a 96-well dish, and then the cells were further cultured for 3 days.
After adding 20 μL each of WST-8 (Kishida Chemical Co., Ltd.) to each well and culturing the cells for another 2 hours, the optical densities at 450 nm were measured against a reference wavelength of 650 nm, and were compared with the control group. The results obtained by determining the concentrations for 50% inhibition of cell proliferation (IC50 (nM)) of the compounds of Examples are presented in the following Table 4.

T1 sequence (P11802 whole entry): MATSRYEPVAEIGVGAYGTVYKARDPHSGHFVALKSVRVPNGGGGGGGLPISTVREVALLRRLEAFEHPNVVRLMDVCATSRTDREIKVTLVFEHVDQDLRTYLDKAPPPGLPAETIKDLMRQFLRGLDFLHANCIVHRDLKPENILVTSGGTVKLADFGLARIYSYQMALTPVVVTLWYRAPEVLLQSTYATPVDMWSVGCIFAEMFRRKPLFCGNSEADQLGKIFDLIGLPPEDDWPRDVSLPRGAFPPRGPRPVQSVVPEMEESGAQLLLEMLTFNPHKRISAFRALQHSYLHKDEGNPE
T1 sequence (P30279 whole entry partner): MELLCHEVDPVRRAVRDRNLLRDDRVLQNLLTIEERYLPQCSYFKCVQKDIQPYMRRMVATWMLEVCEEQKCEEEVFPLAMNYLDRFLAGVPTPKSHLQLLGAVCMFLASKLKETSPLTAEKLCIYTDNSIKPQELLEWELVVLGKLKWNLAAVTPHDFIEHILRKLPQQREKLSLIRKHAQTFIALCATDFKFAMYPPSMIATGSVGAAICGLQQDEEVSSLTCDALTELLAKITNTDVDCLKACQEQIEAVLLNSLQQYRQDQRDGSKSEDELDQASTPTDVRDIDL

SMILES	IC50 [1] [nM]	IC50 [2] [nM]	IC50 [3] [nM]	IC50 [4] [nM]
CCNCc1cnc(Nc2ncc(-c3cc(C)nc(NC4CCCCC4)n3)s2)cn1 [Example 52, 5-[2-(cyclohexylamino)-6-methyl-4-pyrimidinyl]-2-[5-(ethylamino)methyl-2-pyrazinyl]amino-1,3-thiazole]	5.5	210	330	160
CCNCc1cnc(Nc2ncc(-c3cc(C)nc(Sc4ccccc4Cl)n3)s2)cn1 [Example 105, 5-[2-(2-chlorophenylthio)-6-methyl-4-pyrimidinyl]-2-[5-(ethylamino)methyl-2-pyrazinyl]amino-1,3-thiazole]	5.3	370	180	–
Cc1cc(-c2cnc(Nc3cnc(CNC(C)C)cn3)s2)nc(Sc2ccccc2Cl)n1 [Example 106, 5-[2-(2-chlorophenylthio)-6-methyl-4-pyrimidinyl]-2-[5-(isopropylamino)methyl-2-pyrazinyl]amino-1,3-thiazole]	8.4	560	310	63
CNCc1cnc(Nc2ncc(-c3cc(C)nc(Sc4ccccc4Cl)n3)s2)cn1 [Example 107]	8.8	830	250	63
Cc1cc(-c2cnc(Nc3cnc(CN4CCC[C@H]4CO)cn3)s2)nc(Sc2ccccc2Cl)n1 [Example 110, (2S)-5-[2-(2-chlorophenylthio)-6-methyl-4-pyrimidinyl]-2-[5-(2-hydroxymethyl-1-pyrrolidinyl)methyl-2-pyrazinyl]amino-1,3-thiazole]	10	490	320	73
Cc1cc(-c2cnc(Nc3cnc(CN4CCCC4)cn3)s2)nc(Sc2ccccc2Cl)n1 [Example 113, 5-[2-(2-chlorophenylthio)-6-methyl-4-pyrimidinyl]-2-[5-(1-pyrrolidinyl)methyl-2-pyrazinyl]amino-1,3-thiazole]	13	560	880	72
Cc1cc(-c2cnc(Nc3cnc(CN(C)CCO)cn3)s2)nc(Sc2ccccc2Cl)n1 [Example 114, 5-[2-(2-chlorophenylthio)-6-methyl-4-pyrimidinyl]-2-{5-[(2-hydroxyethyl)methylamino]methyl-2-pyrazinyl}amino-1,3-thiazole]	13	780	1600	83
Cc1cc(-c2cnc(Nc3cnc(CN4CC[C@@H](O)C4)cn3)s2)nc(Sc2ccccc2Cl)n1 [Example 118, (3R)-5-[2-(2-chlorophenylthio)-6-methyl-4-pyrimidinyl]-2-[5-(3-hydroxy-1-pyrrolidinyl)methyl-2-pyrazinyl]amino-1,3-thiazole]	20	990	980	90
